Tests used:
[1] = system: histon protein H3 acetylation in BLM melanoma cells; experiment: Western blot of acetylated histon H3, BLM; format: cell-based, human; conditions: 100 μM, 24 hours, vs. DMSO control
Protocol: FIG. 4: 6-PN and 8-PN induce a hyper acetylation in SK-MEL-28 melanoma cells. Western blot analysis of acetylated histon complex H3 in cellular lysates of BLM and SK-MEL-28 cells treated with 100 μM 6-PN or 8-PN for 1, 2, 4, 12 and 24 h, or with 100 μM SAHA (as reference HDACi) for 24 h. Equal protein loading was verified by vinculin staining (lower rows). At 24 hours (BLM) and 2 hours (SK-MEL-28) after the PN treatment a prominent up-regulation of ac-H3 is detectable. The protein expression levels were estimated performing a densitometric analysis.
(§1) The following antibodies were used: Anti-Vinculin and Anti-Actin (1:5000, Sigma-Aldrich), Anti-Acetyl-Histon H3 (1:5000, Millipore, Billerica, USA), Anti-Caspase-3 (1:1000), Anti-AKT, Anti-pAKT, Anti-ERK, Anti-pERK, […], Anti-p70S6 Kinase, and Anti-pS6 protein (1:1000), all from Cell Signaling, Frankfurt, Germany), Anti-LC3 (1:5000, Sigma-Aldrich).
An incubation of cells with HDACi induces generally a hyperacetylation of histon proteins. Therefore, the acetylation status of the histon protein H3 after treatment with 6-PN or 8-PN was investigated. Corresponding to the HDAC screening results, a direct effect was monitored. […] SAHA was used as control HDACi (at 100 μM, 24 hours treatment).

[2] = system: LC3 in SK-MEL-28 melanoma cells; experiment: Western blot LC3 (autophagy), SK-MEL-28; format: cell-based, human; conditions: SK-MEL-28, 100 μM, after 12-24 hours
Protocol: (§2) (A) Cell cycle FACS analyses of PI stained BLM and SK-MEL-28 melanoma cells. 100 μM of 8-PN-induced a G2 arrest in both cells. (B) FACS analyses of BLM and SK-MEL-28 melanoma cells treated with 100 μM 6-PN or 8-PN and stained for annexin V/PI; staurosporin was used as control for apoptosis induction and DMSO as vehicle control. […] (C) BLM and SK-MEL-28 melanoma cells were treated with 100 μM of PNs; TSA, SAHA and EMSO were used as controls.
as §1
Since it has been speculated that the formation of intracytoplasmic vacuoles in pancreatic or breast cancer cells by 6-PN and 8-PN observed in pervious studies might represent an induction of autophagy, this issue was further investigated on a molecular level. BLM and SK-MEL-28 melanoma cells were treated with 100 μM of 6-PN, 8-PN, SAHA or TSA (and with DMSO as control), and the treated cells were lysed for protein extraction after 1 hour, 2 hours, 4 hours, 12 hours and 24 hours. […]

BLM melanoma cells = experiment: FACS cell cycle analysis (PI), BLM; format: cell-based, human; conditions: 100 μM, 48 hours
Protocol: as §2
To further analyze the possibility of apoptosis induction, an extensive apoptosis assay was performed on SK-MEL-28 melanoma cells 4 hours after treatment with 100 μM 6-PN or 8-PN (FIG. 9). […] This was verified by FACS cell cycle analyses to screen for a possible increase of the sub-G1 fraction of cells (apoptotic cells) or for the induction of a G2 arrest (inhibition of proliferation). […] To further differentiate between the induction of apoptosis and/or necrosis an PI/Annexin V staining of SK-MEL-28 and BLM cells was performed 4 hours and 24 hours after the treatment with 6-PN or 8-PN; 10 μM staurosporin (6 hours treatment) was used as positive control for the induction of apoptosis; DMSO treatment was used as vehicle control. The cells were then analyzed by FACS.

[3] = system: all tested cancer cells (Tab. 1); experiment: Proliferation of all tested tumor cell lines (Table 1); format: cell-based; conditions: 19 tumor cell lines of Tab. 1
Excerpt: The inventors have tested 19 different tumor cell lines in total, including five melanoma cell lines, two liver cancer cell lines, three breast cancer cell lines, three colon cancer cell lines, two prostate cancer cell lines, two lung cancer cell lines and to renal cancer cell lines.

In the case of `CC(C)=CCc1c(O)cc(O)c2c1OC(c1ccc(O)cc1)CC2=O` (centres unmarked) [8-PN, 5,7-Dihydroxy-2-(4-hydroxy-phenyl)-8-(3-methyl-but-2-enyl)-chroman-4-one], the “histon complex H3 acetylation” value [1] is reported as “massive increase”, the “shift from LC3-I to LC3-II (autophagy)” value [2] is reported as “clearly induced the shift” and the “sub-G1 fraction (apoptotic cells)” value (BLM melanoma cells) is reported as “remained unaffected”. For the same molecule, the “cells in the G2 phase” value (BLM melanoma cells; DMSO control 30.4%) was 99.6% and the “cell proliferation in all tested cancer cells” value [3] was “effectively reduce cell proliferation”.

— patent US20160067211A1, “PHARMACEUTICAL COMPOSITION” (Eberhard Karls Universitaet Tuebingen Medizinische Fakultaet, priority 2013, published 2016)
